Measurements: ChEMBL document CHEMBL4004803, “Syntheses and antibacterial activity of soluble 9-bromo substituted indolizinoquinoline-5,12-dione derivatives” (Eur J Med Chem, 2017)

Assays:
Type in all cases: functional
Staphylococcus aureus [1] = experiment: Antibacterial activity against methicillin-resistant Staphylococcus aureus 1029025 clinical isolate after 20 to 24 hrs by two-fold microdilution method
Staphylococcus aureus [2] = experiment: Antibacterial activity against methicillin-resistant Staphylococcus aureus 12308 clinical isolate after 20 to 24 hrs by two-fold microdilution method
Staphylococcus aureus [3] = experiment: Antibacterial activity against methicillin-resistant Staphylococcus aureus 1023043 clinical isolate after 20 to 24 hrs by two-fold microdilution method
Staphylococcus aureus [4] = experiment: Antibacterial activity against methicillin-resistant Staphylococcus aureus 519030 clinical isolate after 20 to 24 hrs by two-fold microdilution method
Staphylococcus aureus [5] = experiment: Antibacterial activity against methicillin-resistant Staphylococcus aureus 109016 clinical isolate after 20 to 24 hrs by two-fold microdilution method
Staphylococcus aureus [6] = experiment: Antibacterial activity against methicillin-resistant Staphylococcus aureus 112430 clinical isolate after 20 to 24 hrs by two-fold microdilution method
Staphylococcus aureus [7] = experiment: Antibacterial activity against methicillin-resistant Staphylococcus aureus 1214023 clinical isolate after 20 to 24 hrs by two-fold microdilution method
Staphylococcus aureus [8] = experiment: Antibacterial activity against methicillin-resistant Staphylococcus aureus clinical isolate after 20 to 24 hrs by two-fold microdilution method
Staphylococcus aureus [9] = experiment: Antibacterial activity against methicillin-resistant Staphylococcus aureus 502025 clinical isolate after 20 to 24 hrs by two-fold microdilution method
Staphylococcus aureus [10] = experiment: Antibacterial activity against methicillin-resistant Staphylococcus aureus 1113041 clinical isolate after 20 to 24 hrs by two-fold microdilution method
Staphylococcus aureus [11] = experiment: Antibacterial activity against methicillin-resistant Staphylococcus aureus 531026 clinical isolate after 20 to 24 hrs by two-fold microdilution method
Staphylococcus aureus [12] = experiment: Antibacterial activity against methicillin-resistant Staphylococcus aureus 1101016 clinical isolate after 20 to 24 hrs by two-fold microdilution method
Staphylococcus aureus [13] = experiment: Antibacterial activity against methicillin-resistant Staphylococcus aureus 305026 clinical isolate after 20 to 24 hrs by two-fold microdilution method
Staphylococcus aureus [14] = experiment: Antibacterial activity against methicillin-resistant Staphylococcus aureus ATCC 43300 after 20 to 24 hrs by two-fold microdilution method
Staphylococcus aureus [15] = experiment: Antibacterial activity against methicillin-resistant Staphylococcus aureus 316031 clinical isolate after 20 to 24 hrs by two-fold microdilution method
Staphylococcus aureus [16] = experiment: Antibacterial activity against methicillin-resistant Staphylococcus aureus 829034 clinical isolate after 20 to 24 hrs by two-fold microdilution method
[17] = tested on: Staphylococcus epidermidis; experiment: Antibacterial activity against Staphylococcus epidermidis ATCC 12228 after 20 to 24 hrs by two-fold microdilution method
Staphylococcus aureus [18] = experiment: Antibacterial activity against methicillin-resistant Staphylococcus aureus 1024004-2 clinical isolate after 20 to 24 hrs by two-fold microdilution method
Staphylococcus aureus [19] = experiment: Antibacterial activity against methicillin-resistant Staphylococcus aureus 219236 clinical isolate after 20 to 24 hrs by two-fold microdilution method
Streptococcus pyogenes = experiment: Antibacterial activity against Streptococcus pyogenes ATCC 19615 after 20 to 24 hrs by two-fold microdilution method
Staphylococcus aureus [20] = experiment: Antibacterial activity against methicillin-resistant Staphylococcus aureus 214026 clinical isolate after 20 to 24 hrs by two-fold microdilution method
Staphylococcus aureus [21] = experiment: Antibacterial activity against methicillin-resistant Staphylococcus aureus 1012029 clinical isolate after 20 to 24 hrs by two-fold microdilution method
Staphylococcus aureus [22] = experiment: Antibacterial activity against methicillin-resistant Staphylococcus aureus 531220 clinical isolate after 20 to 24 hrs by two-fold microdilution method
Staphylococcus aureus [23] = experiment: Antibacterial activity against methicillin-resistant Staphylococcus aureus 908046 clinical isolate after 20 to 24 hrs by two-fold microdilution method
Staphylococcus aureus [24] = experiment: Antibacterial activity against methicillin-resistant Staphylococcus aureus 118038 clinical isolate after 20 to 24 hrs by two-fold microdilution method
Staphylococcus aureus [25] = experiment: Antibacterial activity against methicillin-resistant Staphylococcus aureus 919205 clinical isolate after 20 to 24 hrs by two-fold microdilution method
Staphylococcus aureus [26] = experiment: Antibacterial activity against methicillin-resistant Staphylococcus aureus 131215 clinical isolate after 20 to 24 hrs by two-fold microdilution method
Staphylococcus aureus [27] = experiment: Antibacterial activity against methicillin-resistant Staphylococcus aureus 221022 clinical isolate after 20 to 24 hrs by two-fold microdilution method
Staphylococcus aureus [28] = experiment: Antibacterial activity against methicillin-resistant Staphylococcus aureus 112047 clinical isolate after 20 to 24 hrs by two-fold microdilution method
Staphylococcus aureus [29] = experiment: Antibacterial activity against methicillin-resistant Staphylococcus aureus 212014 clinical isolate after 20 to 24 hrs by two-fold microdilution method
Staphylococcus aureus [30] = experiment: Antibacterial activity against methicillin-resistant Staphylococcus aureus 110325 clinical isolate after 20 to 24 hrs by two-fold microdilution method
Staphylococcus aureus [31] = experiment: Antibacterial activity against methicillin-resistant Staphylococcus aureus 110414 clinical isolate after 20 to 24 hrs by two-fold microdilution method
Staphylococcus aureus [32] = experiment: Antibacterial activity against methicillin-resistant Staphylococcus aureus 224001 clinical isolate after 20 to 24 hrs by two-fold microdilution method
Streptococcus pneumoniae = experiment: Antibacterial activity against Streptococcus pneumoniae ATCC 6305 after 20 to 24 hrs by two-fold microdilution method
Staphylococcus aureus [33] = experiment: Antibacterial activity against methicillin-resistant Staphylococcus aureus 1128040 clinical isolate after 20 to 24 hrs by two-fold microdilution method
Staphylococcus aureus [34] = experiment: Antibacterial activity against methicillin-resistant Staphylococcus aureus 122820-2 clinical isolate after 20 to 24 hrs by two-fold microdilution method
Staphylococcus aureus [35] = experiment: Antibacterial activity against methicillin-resistant Staphylococcus aureus 110834 clinical isolate after 20 to 24 hrs by two-fold microdilution method
Staphylococcus aureus [36] = experiment: Antibacterial activity against methicillin-resistant Staphylococcus aureus 20339 clinical isolate after 20 to 24 hrs by two-fold microdilution method
Escherichia coli = experiment: Antibacterial activity against Escherichia coli ATCC 25922 after 20 to 24 hrs by two-fold microdilution method
Staphylococcus aureus [37] = experiment: Antibacterial activity against methicillin-resistant Staphylococcus aureus 19950 clinical isolate after 20 to 24 hrs by two-fold microdilution method
Staphylococcus aureus [38] = experiment: Antibacterial activity against methicillin-resistant Staphylococcus aureus 20106-2 clinical isolate after 20 to 24 hrs by two-fold microdilution method
Staphylococcus aureus [39] = experiment: Antibacterial activity against methicillin-resistant Staphylococcus aureus 523005 clinical isolate after 20 to 24 hrs by two-fold microdilution method
Staphylococcus aureus [40] = experiment: Antibacterial activity against methicillin-resistant Staphylococcus aureus 3250299 clinical isolate after 20 to 24 hrs by two-fold microdilution method
Staphylococcus aureus [41] = experiment: Antibacterial activity against methicillin-resistant Staphylococcus aureus GLH14 clinical isolate after 20 to 24 hrs by two-fold microdilution method
Staphylococcus aureus [42] = experiment: Antibacterial activity against methicillin-resistant Staphylococcus aureus 110910-2 clinical isolate after 20 to 24 hrs by two-fold microdilution method
Staphylococcus aureus [43] = experiment: Antibacterial activity against methicillin-resistant Staphylococcus aureus 1215028 clinical isolate after 20 to 24 hrs by two-fold microdilution method
Staphylococcus aureus [44] = experiment: Antibacterial activity against methicillin-resistant Staphylococcus aureus 414244 clinical isolate after 20 to 24 hrs by two-fold microdilution method

CN(C)CCCCCOC(=O)c1c2c(n3cc(Br)ccc13)C(=O)c1ncccc1C2=O
1 µg/mL: MIC (Escherichia coli) | MIC (Staphylococcus aureus [38])
0.5 µg/mL: MIC (Staphylococcus aureus [4]) | MIC (Staphylococcus aureus [6]) | MIC90 (Staphylococcus aureus [8]) | MIC (Staphylococcus aureus [9]) | MIC (Staphylococcus aureus [10]) | MIC (Staphylococcus aureus [11]) | MIC (Staphylococcus aureus [15]) | MIC (Staphylococcus aureus [16]) | MIC (Staphylococcus aureus [18]) | MIC (Staphylococcus aureus [27]) | MIC (Staphylococcus aureus [31]) | MIC (Staphylococcus aureus [32]) | MIC (Streptococcus pneumoniae) | MIC (Staphylococcus aureus [35]) | MIC (Staphylococcus aureus [36]) | MIC (Staphylococcus aureus [37]) | MIC (Staphylococcus aureus [39]) | MIC (Staphylococcus aureus [41]) | MIC (Staphylococcus aureus [42]) | MIC (Staphylococcus aureus [44])
0.063 µg/mL: MIC (Staphylococcus aureus [23]) | MIC (Staphylococcus aureus [29])
0.125 µg/mL: MIC (Staphylococcus aureus [2]) | MIC (Staphylococcus aureus [13]) | MIC (Staphylococcus aureus [19]) | MIC (Staphylococcus aureus [20]) | MIC (Staphylococcus aureus [25]) | MIC (Staphylococcus aureus [28]) | MIC (Staphylococcus aureus [30]) | MIC (Staphylococcus aureus [34]) | MIC (Staphylococcus aureus [43])
2 µg/mL: MIC (Streptococcus pyogenes)
≤ 0.0078 µg/mL: MIC (Staphylococcus aureus [7]) | MIC (Staphylococcus aureus [14]) | MIC [17]
0.25 µg/mL: MIC (Staphylococcus aureus [1]) | MIC (Staphylococcus aureus [3]) | MIC (Staphylococcus aureus [5]) | MIC50 (Staphylococcus aureus [8]) | MIC (Staphylococcus aureus [12]) | MIC (Staphylococcus aureus [21]) | MIC (Staphylococcus aureus [22]) | MIC (Staphylococcus aureus [24]) | MIC (Staphylococcus aureus [26]) | MIC (Staphylococcus aureus [33]) | MIC (Staphylococcus aureus [40])
